Test results taken from patent US6683090B1 (priority 1999, dated 2004).

Target: α7 nAChR subtype (Rattus norvegicus, UniProt Q05941)
Format: binding
Details: read-out: KD of radioligand

α7 nAChR subtype, sequence (Q05941 23-502 limits assumed): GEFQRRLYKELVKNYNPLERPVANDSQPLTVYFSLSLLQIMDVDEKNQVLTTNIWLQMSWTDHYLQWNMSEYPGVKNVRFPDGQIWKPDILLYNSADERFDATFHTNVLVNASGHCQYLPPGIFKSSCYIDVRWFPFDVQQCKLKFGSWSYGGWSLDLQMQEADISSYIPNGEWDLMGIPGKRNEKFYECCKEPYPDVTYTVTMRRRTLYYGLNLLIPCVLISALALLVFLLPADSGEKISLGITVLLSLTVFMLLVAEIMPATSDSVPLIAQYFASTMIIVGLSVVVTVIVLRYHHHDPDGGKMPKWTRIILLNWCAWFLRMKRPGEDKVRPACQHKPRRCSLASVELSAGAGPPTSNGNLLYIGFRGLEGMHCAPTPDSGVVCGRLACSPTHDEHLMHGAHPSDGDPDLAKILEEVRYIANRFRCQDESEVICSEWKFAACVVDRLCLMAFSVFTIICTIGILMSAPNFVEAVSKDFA

125I-α-Bungarotoxin [^125I-α-BTX]
Kd: 1.67 nM
